Patent publication US10633375B2, “Oxopicolinamide derivative, preparation method therefor and pharmaceutical use thereof” (Jiangsu Hengrui Medicine Co., Ltd., priority 2016, dated 2020)

Legend:
[1] = target: Coagulation Factor XIa protease (Homo sapiens (Human), UniProt P03951); test: Inhibition of Factor XIa detected by absorption photometry; format: biochemical; conditions: absorbance at 405 nm, 10 minutes at 37° C.
Method in brief: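 Read-out was absorbance at 405 nm after 10 min incubation at 37° C. Compound dilutions in 100% DMSO (200 to 0.002 μM) were combined with FXIa (2.5 μg/ml solution), then FXIa-specific chromogenic substrate (2 mM solution) was added; both are stock concentrations, not final.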

human blood = test: In vitro anticoagulant effect on human blood (APTT, CT2); conditions: for CT2, concentration doubling APTT: concentration corresponding to 2 times the APTT of the blank control, human plasma
Method: Test Example 2: Determination of In Vitro Anticoagulant Effect of the Compounds of the Present Invention on Human Blood
1. Experimental Materials
Plasma: Human blood was collected in blood collection tubes containing no anticoagulant, and then 3.8% sodium citrate (volume ratio 1:9) was added. The tubes were centrifuged at 2500 rpm for 10 minutes at room temperature, and then the plasma was collected and stored at −80° C.;
Reagents: APTT reagent (Activated partial thromboplastin time assay kit, SIEMENS, Art. No. B4218-1), calcium chloride solution;
Instrument: Coagulation instrument (SYSMEX, CA-500).
The divided plasma was melted at room temperature and mixed well. 10000 μM the test compound dissolved in 100% DMSO was diluted to 3000, 300, 200, 150, 75, 30, 10, 3, 0.3 μM with 100% DMSO, and the blank was 100% DMSO. The reagent, plasma, and compound were placed in corresponding positions in the coagulation instrument, and APTT detection of the compound was carried out.
Curve fitting was carried out by graphpad and CT2 was calculated, i.e., the concentration of the compound corresponding to 2 times the APTT of the blank control.

[2] = Pharmacokinetics assay in rats after intragastrical administration; format: in vivo, Sprague-Dawley (SD) rats; conditions: both sexes, Sprague-Dawley, rat, plasma, po, SD rats, intragastric, 2 mg/kg; for Vd/F: read-out: Apparent Distribution Volume Vz/F; for AUC: read-out: Area Under Curve AUC; for CL/F: read-out: Clearance CLz/F; for half-life: read-out: Half-Life T½ (converted); for MRT: read-out: Mean Residence Time MRT; for Cmax: read-out: Plasma Concentration Cmax
Source text: Test Example 3. Pharmacokinetics Assay of the Compounds of the Present Invention
Rats were used as test animals. […] The pharmacokinetic behavior of the compounds of the present invention was studied and evaluated in rats.
56 healthy adult Sprague-Dawley (SD) rats, half male and half female, were purchased from SINO-BRITSH SIPPR/BK LAB. ANIMAL LTD., CO, with License No.: SCXK (Shanghai) 2008-0016.
2.3 Preparation of the Test Compounds
A certain amount of the test compound was weighed, and added with 5% by volume of DMSO, 5% by volume of Tween 80 and 90% normal saline to prepare a 0.2 mg/mL colorless, clear and transparent solution.
After an overnight fast, SD rats were intragastrically administered at a dose of 2.0 mg/kg and an administration volume of 10.0 mL/kg.
Blood (0.2 mL) was taken from the orbital sinus before administration and at 0.5, 1.0, 2.0, 4.0, 6.0, 8.0, 11.0 and 24.0 hours after administration. The samples were stored in heparin anticoagulation tubes, and centrifuged for 10 minutes at 3500 rpm at 4° C. to separate the blood plasma. The plasma samples were stored at −20° C. The rats were fed 2 hours after administration.
The content of the test compound in the plasma of rats after intragastric administration of different concentrations of the drug was determined: 25 μL of rat plasma at each time after administration was taken and added with 30 μL (100 ng/mL) of the internal standard solution of camptothecin and 200 μL of acetonitrile, shaken vertically for 5 minutes, and centrifuged for 10 minutes (4000 rpm). 3.0 μL of the supernatant was taken from the plasma samples for LC/MS/MS analysis.
4. Results of Pharmacokinetic Parameters
Pharmacokinetic parameters of the compounds of the present invention in rats are shown below.

Sequence of Coagulation Factor XIa protease (P03951 388-625): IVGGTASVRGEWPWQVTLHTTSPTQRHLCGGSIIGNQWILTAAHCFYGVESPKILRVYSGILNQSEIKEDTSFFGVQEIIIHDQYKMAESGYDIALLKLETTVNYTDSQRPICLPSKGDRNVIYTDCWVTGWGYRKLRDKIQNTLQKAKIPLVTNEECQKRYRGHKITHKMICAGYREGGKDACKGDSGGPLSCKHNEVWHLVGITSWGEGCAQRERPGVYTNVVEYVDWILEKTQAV
Sequence of Coagulation Factor XIa protease (P03951 19-387 partner): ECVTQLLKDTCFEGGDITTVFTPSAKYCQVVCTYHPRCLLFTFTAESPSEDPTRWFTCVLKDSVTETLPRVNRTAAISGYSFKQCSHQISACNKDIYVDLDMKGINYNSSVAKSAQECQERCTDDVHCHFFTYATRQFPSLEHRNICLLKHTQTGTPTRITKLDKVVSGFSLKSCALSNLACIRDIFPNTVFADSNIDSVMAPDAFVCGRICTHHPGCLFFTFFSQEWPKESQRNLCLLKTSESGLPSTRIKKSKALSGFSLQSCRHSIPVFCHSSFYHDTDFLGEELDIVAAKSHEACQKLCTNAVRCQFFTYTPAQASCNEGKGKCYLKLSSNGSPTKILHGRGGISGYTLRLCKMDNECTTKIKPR

Row | SMILES | IC50 [1] | Vd/F [2] | AUC [2] | CL/F [2] | half-life [2] | MRT [2] | Cmax [2] | CT2, concentration doubling APTT (human blood; Table 2) | CT2, concentration doubling APTT (human blood; Table 3 comparison) | CT2 value ratio, Example 114 versus comparative Example 2 (human blood; human blood, from Table 3)
1 | CCC(=O)c1ccc(Cl)cc1-c1cc(=O)n([C@@H](Cc2ccccc2)C(=O)Nc2ccc(C(=O)O)cc2)cc1OC [Example 9, (S)-4-(2-(4-(5-chloro-2-propionylphenyl)-5-methoxy-2-oxopyridin-1(2H)-yl)-3-phenylpropanamido)benzoic acid] | 14 nM | 31.5 ± 16.1 L/kg | 701 ± 615 ng·h/mL | 69.8 ± 35.2 mL/min/kg | 5.55 ± 1.79 h | 6.78 ± 2.36 h | 128 ± 50 ng/mL | 2.4 µM |  | 
2 | COc1cn([C@@H](Cc2ccccc2)C(=O)Nc2ccc(C(N)=O)cc2)c(=O)cc1-c1cc(Cl)ccc1C(C)=O [Example 11, (S)-4-(2-(4-(2-acetyl-5-chlorophenyl)-5-methoxy-2-oxopyridin-1(2H)-yl)-3-phenylpropanamido)benzamide] | 13 nM | 40.2 ± 18.6 L/kg | 125 ± 50 ng·h/mL | 299 ± 111 mL/min/kg | 1.53 ± 0.33 h | 2.12 ± 0.17 h | 73.1 ± 32.3 ng/mL | 4.2 µM |  | 
3 | CNC(=O)c1ccc(NC(=O)[C@H](Cc2ccccc2)n2cc(OC)c(-c3cc(Cl)ccc3C(C)=O)cc2=O)cc1 [Example 13, (S)-4-(2-(4-(2-acetyl-5-chlorophenyl)-5-methoxy-2-oxopyridin-1(2H)-yl)-3-phenylpropanamido)-N-methylbenzamide] | 46 nM | 26.9 ± 14 L/kg | 241 ± 168 ng·h/mL | 217 ± 151 mL/min/kg | 1.67 ± 0.48 h | 2.36 ± 1.05 h | 119 ± 78 ng/mL | 6.0 µM |  | 
4 | COc1cn([C@@H](Cc2ccccc2)C(=O)Nc2ccc(C(=O)O)cc2)c(=O)cc1-c1c(C(C)=O)ccc(Cl)c1F [Example 31, (S)-4-(2-(4-(6-acetyl-3-chloro-2-fluorophenyl)-5-methoxy-2-oxopyridin-1(2H)-yl)-3-phenylpropanamido)benzoic acid] |  | 21.6 ± 6.31 L/kg | 414 ± 77 ng·h/mL | 82.5 ± 14.6 mL/min/kg | 3.2 ± 1.41 h | 3.24 ± 0.93 h | 234 ± 66 ng/mL | 8.5 µM |  | 
5 | COc1cn(C(Cc2ccn(C)n2)C(=O)Nc2ccc(C(=O)O)cc2)c(=O)cc1-c1cc(Cl)ccc1C(C)=O (stereo not drawn) [Example 100, 4-(2-(4-(2-acetyl-5-chlorophenyl)-5-methoxy-2-oxopyridin-1(2H)-yl)-3-(1-methyl-1H-pyrazol-3-yl)propanamido)benzoic acid] | 35 nM |  |  |  |  |  |  | 3.3 µM |  | 
6 | COc1cn([C@H](Cc2cnn(C)c2)C(=O)Nc2ccc(C(=O)O)cc2)c(=O)cc1-c1cc(Cl)ccc1C(C)=O [Example 104, (R)-4-(2-(4-(2-acetyl-5-chlorophenyl)-5-methoxy-2-oxopyridin-1 (2H)-yl)-3-(1-methyl-1H-pyrazol-4-yl)propanamido)benzoic acid] | 8150 nM |  |  |  |  |  |  | >10000 µM |  | 
7 | COc1cn([C@@H](CCOC(C)(C)C)C(=O)Nc2ccc(C(=O)O)cc2)c(=O)cc1-c1cc(Cl)ccc1C(C)=O [Example 111, (S)-4-(2-(4-(2-acetyl-5-chlorophenyl)-5-methoxy-2-oxopyridin-1(2H)-yl)-4-(tert-butoxy)butanamido)benzoic acid] | 18 nM | 36.7 ± 13.7 L/kg | 378 ± 98 ng·h/mL | 94.1 ± 30.8 mL/min/kg | 4.94 ± 2.33 h | 4.41 ± 1.99 h | 252 ± 56 ng/mL | 3.2 µM |  | 
8 | COc1cn([C@H](CCOC(C)(C)C)C(=O)Nc2ccc(C(=O)O)cc2)c(=O)cc1-c1cc(Cl)ccc1C(C)=O [Example 112, (R)-4-(2-(4-(2-acetyl-5-chlorophenyl)-5-methoxy-2-oxopyridin-1(2H)-yl)-4-(tert-butoxy)butanamido)benzoic acid] | > 10000 nM |  |  |  |  |  |  | >10000 µM |  | 
9 | CCC(=O)c1ccc(Cl)cc1-c1cc(=O)n([C@@H](CCOC(C)(C)C)C(=O)Nc2ccc3nccnc3c2)cc1OC [Example 114, (S)-4-(tert-butoxy)-2-(4-(5-chloro-2-propionylphenyl)-5-methoxy-2-oxopyridin-1(2H)-yl)-N-(quinoxalin-6-yl)butanamide] | 27 nM | 24 ± 11.1 L/kg | 168 ± 102 ng·h/mL | 278 ± 182 mL/min/kg | 1.11 ± 0.25 h | 1.67 ± 0.23 h | 91.2 ± 51.3 ng/mL | 3.6 µM | 2.9 µM | 4.5 times
10 | COc1cn([C@H](CCOC2CCC2)C(=O)Nc2ccc(C(=O)O)cc2)c(=O)cc1-c1cc(Cl)ccc1C(C)=O [Example 163, (R)-4-(2-(4-(2-acetyl-5-chlorophenyl)-5-methoxy-2-oxopyridin-1 (2H)-yl)-4-cyclobutoxybutanamido)benzoic acid] | 9110 nM |  |  |  |  |  |  | >10000 µM |  | 
11 | COc1cn([C@@H](CCOC2CCC2)C(=O)Nc2ccc(C(=O)O)cc2)c(=O)cc1-c1cc(Cl)ccc1C(C)=O [Example 164, (S)-4-(2-(4-(2-acetyl-5-chlorophenyl)-5-methoxy-2-oxopyridin-1(2H)-yl)-4-cyclobutoxybutanamido)benzoic acid] | 30 nM |  |  |  |  |  |  | 6.4 µM |  | 

More lines, main results first:

Row | IC50 [1] | Vd/F [2] | AUC [2] | CL/F [2] | half-life [2] | MRT [2] | Cmax [2] | SMILES | CT2, concentration doubling APTT (human blood; Table 2) | CT2, concentration doubling APTT (human blood; Table 3 comparison) | CT2 value ratio, Example 114 versus comparative Example 2 (human blood; human blood, from Table 3)
12 | 40 nM | 15.8 ± 2.29 L/kg | 158 ± 45 ng·h/mL | 222 ± 55.7 mL/min/kg | 0.85 ± 0.14 h | 1.85 ± 0.76 h | 126 ± 50 ng/mL | COc1cn([C@@H](Cc2ccccn2)C(=O)Nc2ccc(C(=O)O)cc2)c(=O)cc1-c1cc(Cl)ccc1C(C)=O [Example 80, (S)-4-(2-(4-(2-acetyl-5-chlorophenyl)-5-methoxy-2-oxopyridin-1(2H)-yl)-3-(pyridin-2-yl)propanamido)benzoic acid] | 7.9 µM |  | 
13 | 29 nM |  |  |  |  |  |  | CCC(=O)c1ccc(Cl)cc1-c1cc(=O)n(C(Cc2ccn(C)n2)C(=O)Nc2ccc(C(=O)O)cc2)cc1OC (stereo not drawn) [Example 99, 4-(2-(4-(5-chloro-2-propionylphenyl)-5-methoxy-2-oxopyridin-1(2H)-yl)-3-(1-methyl-1H-pyrazol-3-yl)propanamido)benzoic acid] | 3.5 µM |  | 
14 | 30 nM |  |  |  |  |  |  | COc1cn([C@@H](Cc2cnn(C)c2)C(=O)Nc2ccc(C(=O)O)cc2)c(=O)cc1-c1cc(Cl)ccc1C(C)=O [Example 105, (S)-4-(2-(4-(2-acetyl-5-chlorophenyl)-5-methoxy-2-oxopyridin-1(2H)-yl)-3-(1-methyl-1H-pyrazol-4-yl)propanamido)benzoic acid] | 6.9 µM |  | 
15 | 68 nM | 34.6 ± 4.13 L/kg | 365 ± 52 ng·h/mL | 92.5 ± 12.3 mL/min/kg | 4.34 ± 0.35 h | 8.3 ± 1.33 h | 53.9 ± 20.3 ng/mL | COc1cn([C@H](CC2CCC2)C(=O)Nc2ccc(C(=O)O)cc2)c(=O)cc1-c1c(C(C)=O)ccc(Cl)c1F [Example 160, (R)-4-(2-(4-(6-acetyl-3-chloro-2-fluorophenyl)-5-methoxy-2-oxopyridin-1(2H)-yl)-3-cyclobutylpropanamido)benzoic acid] | 3.8 µM |  | 
16 | 42 nM |  |  |  |  |  |  | CCC(=O)c1ccc(Cl)cc1-c1cc(=O)n(C(CC2CCCCO2)C(=O)Nc2ccc(C(=O)O)cc2)cc1OC (stereo not drawn) [Example 166] | 7.2 µM |  | 
